Laboratory results: patent US9308215B2, “Avermectins and milbemycins as anti-mycobacterial agents” (priority 2013, dated 2016)
In brackets after ≈: the same amount, converted by molar mass. Read-outs that look alike come from different tables or passages of the source.

Legend:
[1] = test system: representative Gram-positive and Gram-negative bacteria; format: cell-based
[2] = cited from earlier work
[3] = test system: A. baumannii; test: microbe, parasite or virus in culture; format: cell-based, Acinetobacter baumannii; conditions: Acinetobacter baumannii, ATCC1960, read-out: In vitro MIC90
[4] = test system: M. chelonae; test: MIC against mycobacterial species; format: cell-based; conditions: Mycobacteroides chelonae
[5] = test system: M. bovis BCG; test: microbe, parasite or virus in culture; format: cell-based, Mycobacterium bovis; conditions: Mycobacterium tuberculosis variant bovis BCG, BCG, read-out: In vitro MIC90
[6] = test system: M. tuberculosis H37Rv and mc25857 (an MDR isolate); format: cell-based, Mycobacterium tuberculosis
[7] = test system: K. rhizophila; test: microbe, parasite or virus in culture; format: cell-based, Kocuria rhizophila; conditions: Kocuria rhizophila, read-out: In vitro MIC90
[8] = test system: M. intracellulare; test: MIC against mycobacterial species; format: cell-based; conditions: Mycobacterium intracellulare
[9] = test system: M. smegmatis; test: microbe, parasite or virus in culture; format: cell-based, Mycobacterium smegmatis; conditions: Mycolicibacterium smegmatis, MC^2155, read-out: In vitro MIC90
[10] = Rats, 10 mg/kg oral; cited from earlier work
[11] = test system: R. jostii; test: microbe, parasite or virus in culture; format: cell-based, Rhodococcus jostii; conditions: Rhodococcus jostii, read-out: In vitro MIC90
[12] = test system: M. gordonae; test: MIC against mycobacterial species; format: cell-based; conditions: Mycobacterium gordonae
[13] = rats; cited from earlier work
[14] = test system: M. tuberculosis; test: microbe, parasite or virus in culture; format: cell-based, Mycobacterium tuberculosis; conditions: for MIC90: Mycobacterium tuberculosis
[15] = 12 mg/kg oral, cited from earlier work
[16] = test system: M. avium; test: MIC against mycobacterial species; format: cell-based, Mycobacterium avium; conditions: Mycobacterium avium
[17] = test system: P. aeruginosa; test: microbe, parasite or virus in culture; format: cell-based, Pseudomonas aeruginosa; conditions: Pseudomonas aeruginosa, read-out: In vitro MIC90
[18] = cited from earlier work; remark: listed apart in the source
[19] = cats; cited from earlier work
[20] = test system: M. aurum; test: MIC against mycobacterial species; format: cell-based; conditions: Mycolicibacterium aurum
[21] = test system: S. lividans; test: microbe, parasite or virus in culture; format: cell-based, Streptomyces lividans; conditions: Streptomyces lividans, read-out: In vitro MIC90
[22] = test system: S. aureus; test: microbe, parasite or virus in culture; format: cell-based, Staphylococcus aureus; conditions: Staphylococcus aureus, ATCC25923, read-out: In vitro MIC90
[23] = cited from earlier work; remark: listed apart in the source
[24] = test system: E. coli; test: microbe, parasite or virus in culture; format: cell-based, Escherichia coli; conditions: Escherichia coli, read-out: In vitro MIC90
[25] = test system: M. phlei; test: MIC against mycobacterial species; format: cell-based; conditions: Mycolicibacterium phlei
[26] = Cats, cited from earlier work
[27] = test system: M. tuberculosis; conditions: Jayaram et al. 2003; cited from earlier work

CO[C@H]1C[C@H](O[C@@H]2/C(C)=C/C[C@@H]3C[C@@H](C[C@]4(CC[C@H](C)[C@@H](C5CCCCC5)O4)O3)OC(=O)[C@@H]3C=C(C)/C(=N/O)[C@H]4OC/C(=C\C=C\[C@@H]2C)[C@]43O)O[C@@H](C)[C@@H]1O [Selamectin]
Inhibitory effects [1]: not observed
LD50 ([2]; mice): > 1,600 mg/kg body weight
dose well tolerated ([2]; mouse, in vivo): up to 300 mg/kg body weight
safe dose extrapolated to a 70 kg adult (from 24 mg/kg in cats and dogs): 1,680 mg
safe dose extrapolated to humans (from 40 mg/kg/day in dogs): 2,800 mg/day
MIC90 [3]: > 256 mg/L
MIC [4]: 2 mg/L (≈ 2.6 µM)
MIC90 [5]: 4 mg/L (≈ 5.19 µM)
bactericidal profile ([6]; 21-day kill curves, various concentrations, H37Rv): strongest bactericidal profile
bactericidal or bacteriostatic ([6]; in vitro against M. tuberculosis, survival kinetics): Bactericidal
MIC90 [7]: > 256 mg/L
MIC ([8]; ATCC35761, M. intracellulare 1403 ATCC35761): 1 mg/L (≈ 1.3 µM)
MIC ([8]; M. intracellulare D673): 2 mg/L (≈ 2.6 µM)
MIC ([8]; M. intracellulare FM): 2 mg/L (≈ 2.6 µM)
MIC ([8]; M. intracellulare 1403 Trudeau): 1 mg/L (≈ 1.3 µM)
MIC90 [9]: 4 mg/L (≈ 5.19 µM)
Cmax [10]: >1 µg/mL
T½ [10]: 10.3 h
MIC90 [11]: > 256 mg/L
MIC [12]: < 0.25 mg/L
LD50 [13]: > 1,600 mg/kg body weight
activity in dose response curves compared to ivermectin and doramectin ([14]; M. tuberculosis H37Rv and an MDR clinical isolate (FIG. 10)): increased activity
activity in dose response curves ([14]; MDR clinical isolates BC-MDR2, BC-MDR3, BC-MDR4 and BC-MDR5 (FIG. 11)): consistently more active than ivermectin
MIC90 ([14]; ERDMAN, read-out: In vitro MIC90, strain Erdman, WT): 2 mg/L (≈ 2.6 µM)
MIC90 ([14]; read-out: In vitro MIC90, strain 1254, WT): 2 to 4 mg/L (≈ 2.6 to 5.19 µM)
MIC90 ([14]; read-out: In vitro MIC90, strain BC-DS1 (drug-susceptible)): 2 mg/L (≈ 2.6 µM)
MIC90 ([14]; read-out: In vitro MIC90, strain BC-DS3 (drug-susceptible)): 1 to 2 mg/L (≈ 1.3 to 2.6 µM)
MIC90 ([14]; read-out: In vitro MIC90, strain BC-DS4 (drug-susceptible)): 1 to 2 mg/L (≈ 1.3 to 2.6 µM)
MIC90 ([14]; read-out: In vitro MIC90, strain BC-DS5 (drug-susceptible)): 2 to 4 mg/L (≈ 2.6 to 5.19 µM)
MIC90 ([14]; read-out: In vitro MIC90, strain CDC 1551, WT): 1 mg/L (≈ 1.3 µM)
sensitivity of the ivermectin-less-sensitive strains ([14]; strains CI15072, CI12081, BC-MDR2, BC-DS4 and BC-DS5): unaffected
Cmax ([15]; Mouse (lung)): 7.5 µg/mL
AUC ([15]; Mouse (plasma)): 62.2857 µg·h/mL
Cmax ([15]; Mouse (plasma)): 3.714 µg/mL
MIC ([16]; ATCC25291, M. avium ATCC 25291): 16 mg/L (≈ 20.8 µM)
MIC ([16]; M. avium 702): 64 mg/L (≈ 83.1 µM)
MIC ([16]; M. avium 715): 128 mg/L (≈ 166 µM)
MIC90 [17]: > 256 mg/L
AUC ([18]; Dogs female, 6 mg/kg (topical)): 8.903 µg·h/mL
Cmax ([18]; Dogs female, 6 mg/kg (topical)): 0.02265 µg/mL
T½ ([18]; Dogs female, 6 mg/kg (topical)): 257.5 h
AUC ([18]; Dogs males, 6 mg/kg (topical)): 4.609 µg·h/mL
Cmax ([18]; Dogs males, 6 mg/kg (topical)): 0.01272 µg/mL
T½ ([18]; Dogs males, 6 mg/kg (topical)): 291.4 h
AUC ([18]; Dogs, 24 mg/kg (topical)): 15.229 µg·h/mL
Cmax ([18]; Dogs, 24 mg/kg (topical)): 0.0865 µg/mL
AUC ([18]; Dogs, 24 mg/kg oral): 227.901 µg·h/mL
Cmax ([18]; Dogs, 24 mg/kg oral): 7.63 µg/mL
T½ ([18]; Dogs, 24 mg/kg oral): 45.7 h
doses reported to be safe [19]: up to 24 mg/kg
MIC [20]: 1 mg/L (≈ 1.3 µM)
MIC90 [21]: > 256 mg/L
MIC90 [22]: > 256 mg/L
oral dose found safe ([23]; 3-month repeated dose toxicity study in dogs): 40 mg/kg/day
doses reported to be safe ([23]; dogs): up to 24 mg/kg
toxicity in dogs lacking MDR1 P-glycoprotein / homozygous MDR1 mutation ([23]; ivermectin: extra-label use, selamectin, moxidectin: therapeutic doses): without any signs of toxicosis
MIC90 [24]: > 256 mg/L
MIC [25]: 4 mg/L (≈ 5.19 µM)
AUC ([26]; 24 mg/kg (topical)): 743.349 µg·h/mL
Cmax ([26]; 24 mg/kg (topical)): 5.513 µg/mL
AUC ([26]; 24 mg/kg oral): 1109.933 µg·h/mL
Cmax ([26]; 24 mg/kg oral): 11.929 µg/mL

CO[C@H]1/C=C/O[C@@]2(C)Oc3c(C)c(O)c4c(O)c(c(/C=N/N5CCN(C)CC5)c(O)c4c3C2=O)NC(=O)/C(C)=C\C=C\[C@H](C)[C@H](O)[C@@H](C)[C@@H](O)[C@@H](C)[C@H](OC(C)=O)[C@@H]1C [Rifampin]
AUC24/MIC value required for 1 log 10 CFU/ml reduction, relative to avermectins and milbemycins [27]: more than 10 times higher
